Test results reported in ChEMBL document CHEMBL3994622, “Design and synthesis of new RAF kinase-inhibiting antiproliferative quinoline derivatives. Part 2: Diarylurea derivatives” (Eur J Med Chem, 2017).

Legend:
[1] = test system: OVCAR-8; experiment: Growth inhibition of human OVCAR8 cells assessed as cell growth at 5 uM incubated for 48 hrs by sulforhodamine B assay relative to control; assay type: functional; conditions: OVCAR-8, 48 h, read-out: Activity
[2] = test system: NCI-H460; experiment: Growth inhibition of human NCI-H460 cells assessed as cell growth at 5 uM incubated for 48 hrs by sulforhodamine B assay relative to control; assay type: functional; conditions: NCI-H460, 48 h, read-out: Activity
[3] = test system: M14; experiment: Growth inhibition of human M14 cells assessed as cell growth at 50 uM incubated for 48 hrs by sulforhodamine B assay relative to control; assay type: functional; conditions: M14, 48 h, read-out: Activity
[4] = test system: SR; experiment: Growth inhibition of human SR cells assessed as cell growth at 50 uM incubated for 48 hrs by sulforhodamine B assay relative to control; assay type: functional; conditions: read-out: Activity
[5] = test system: KM12; experiment: Growth inhibition of human KM12 cells assessed as cell growth at 0.005 uM incubated for 48 hrs by sulforhodamine B assay relative to control; assay type: functional; conditions: KM12, 48 h, read-out: Activity
[6] = test system: OVCAR-3; experiment: Growth inhibition of human OVCAR3 cells assessed as cell growth at 0.05 uM incubated for 48 hrs by sulforhodamine B assay relative to control; assay type: functional; conditions: OVCAR-3, 48 h, read-out: Activity
[7] = test system: SK-MEL-5; experiment: Growth inhibition of human SK-MEL-5 cells assessed as cell growth at 50 uM incubated for 48 hrs by sulforhodamine B assay relative to control; assay type: functional; conditions: SK-MEL-5, 48 h, read-out: Activity
[8] = test system: SW-620; experiment: Growth inhibition of human SW620 cells assessed as cell growth at 0.5 uM incubated for 48 hrs by sulforhodamine B assay relative to control; assay type: functional; conditions: SW-620, 48 h, read-out: Activity
[9] = test system: SF-268; experiment: Growth inhibition of human SF268 cells assessed as cell growth at 5 uM incubated for 48 hrs by sulforhodamine B assay relative to control; assay type: functional; conditions: SF-268, 48 h, read-out: Activity
[10] = test system: MDA-MB-435; experiment: Growth inhibition of human MDA-MB-435 cells assessed as cell growth at 0.5 uM incubated for 48 hrs by sulforhodamine B assay relative to control; assay type: functional; conditions: MDA-MB-435, 48 h, read-out: Activity
[11] = test system: HOP-92; experiment: Growth inhibition of human HOP92 cells assessed as cell growth at 0.005 uM incubated for 48 hrs by sulforhodamine B assay relative to control; assay type: functional; conditions: HOP-92, 48 h, read-out: Activity
[12] = test system: EKVX; experiment: Growth inhibition of human EKVX cells assessed as cell growth at 50 uM incubated for 48 hrs by sulforhodamine B assay relative to control; assay type: functional; conditions: read-out: Activity
[13] = test system: MOLT-4; experiment: Growth inhibition of human MOLT4 cells assessed as cell growth at 0.5 uM incubated for 48 hrs by sulforhodamine B assay relative to control; assay type: functional; conditions: MOLT-4, 48 h, read-out: Activity
[14] = test system: NCI-H460; experiment: Growth inhibition of human NCI-H460 cells assessed as cell growth at 50 uM incubated for 48 hrs by sulforhodamine B assay relative to control; assay type: functional; conditions: NCI-H460, 48 h, read-out: Activity
[15] = test system: A549; experiment: Growth inhibition of human A549/ATCC cells assessed as cell growth at 50 uM incubated for 48 hrs by sulforhodamine B assay relative to control; assay type: functional; conditions: A549, 48 h, read-out: Activity
[16] = test system: HOP-62; experiment: Growth inhibition of human HOP62 cells assessed as cell growth at 50 uM incubated for 48 hrs by sulforhodamine B assay relative to control; assay type: functional; conditions: HOP-62, 48 h, read-out: Activity
[17] = test system: SK-MEL-28; experiment: Growth inhibition of human SK-MEL-28 cells assessed as cell growth at 0.5 uM incubated for 48 hrs by sulforhodamine B assay relative to control; assay type: functional; conditions: SK-MEL-28, 48 h, read-out: Activity
[18] = test system: MOLT-4; experiment: Growth inhibition of human MOLT4 cells assessed as cell growth at 0.05 uM incubated for 48 hrs by sulforhodamine B assay relative to control; assay type: functional; conditions: MOLT-4, 48 h, read-out: Activity
[19] = test system: HT-29; experiment: Growth inhibition of human HT-29 cells assessed as cell growth at 0.05 uM incubated for 48 hrs by sulforhodamine B assay relative to control; assay type: functional; conditions: HT-29, 48 h, read-out: Activity
[20] = test system: PC-3; experiment: Growth inhibition of human PC3 cells assessed as cell growth at 5 uM incubated for 48 hrs by sulforhodamine B assay relative to control; assay type: functional; conditions: PC-3, 48 h, read-out: Activity
[21] = test system: LOX IMVI; experiment: Growth inhibition of human LOXIMVI cells assessed as cell growth at 50 uM incubated for 48 hrs by sulforhodamine B assay relative to control; assay type: functional; conditions: read-out: Activity
[22] = test system: K562; experiment: Growth inhibition of human K562 cells assessed as cell growth at 5 uM incubated for 48 hrs by sulforhodamine B assay relative to control; assay type: functional; conditions: K562, 48 h, read-out: Activity
[23] = test system: SK-OV-3; experiment: Growth inhibition of human SKOV3 cells assessed as cell growth at 0.5 uM incubated for 48 hrs by sulforhodamine B assay relative to control; assay type: functional; conditions: SK-OV-3, 48 h, read-out: Activity
[24] = test system: OVCAR-8; experiment: Growth inhibition of human OVCAR8 cells assessed as cell growth at 0.5 uM incubated for 48 hrs by sulforhodamine B assay relative to control; assay type: functional; conditions: OVCAR-8, 48 h, read-out: Activity
[25] = test system: UACC-257; experiment: Growth inhibition of human UACC257 cells assessed as cell growth at 0.5 uM incubated for 48 hrs by sulforhodamine B assay relative to control; assay type: functional; conditions: UACC-257, 48 h, read-out: Activity
[26] = test system: SK-MEL-28; experiment: Growth inhibition of human SK-MEL-28 cells assessed as cell growth at 0.05 uM incubated for 48 hrs by sulforhodamine B assay relative to control; assay type: functional; conditions: SK-MEL-28, 48 h, read-out: Activity
[27] = test system: MCF7; experiment: Growth inhibition of human MCF7 cells assessed as cell growth at 0.5 uM incubated for 48 hrs by sulforhodamine B assay relative to control; assay type: functional; conditions: MCF7, 48 h, read-out: Activity
[28] = test system: NCI-H522; experiment: Growth inhibition of human NCI-H522 cells assessed as cell growth at 0.005 uM incubated for 48 hrs by sulforhodamine B assay relative to control; assay type: functional; conditions: NCI-H522, 48 h, read-out: Activity
[29] = test system: SF-268; experiment: Growth inhibition of human SF268 cells assessed as cell growth at 50 uM incubated for 48 hrs by sulforhodamine B assay relative to control; assay type: functional; conditions: SF-268, 48 h, read-out: Activity
[30] = molecular target: Receptor-type tyrosine-protein kinase FLT3 (Homo sapiens) (UniProt P36888); experiment: Inhibition of human FLT3 at 10 uM using EAIYAAPFAKKK as substrate in presence of [33P]ATP by Hotspot assay relative to control
Chain of Receptor-type tyrosine-protein kinase FLT3 (Homo sapiens) (P36888 whole entry): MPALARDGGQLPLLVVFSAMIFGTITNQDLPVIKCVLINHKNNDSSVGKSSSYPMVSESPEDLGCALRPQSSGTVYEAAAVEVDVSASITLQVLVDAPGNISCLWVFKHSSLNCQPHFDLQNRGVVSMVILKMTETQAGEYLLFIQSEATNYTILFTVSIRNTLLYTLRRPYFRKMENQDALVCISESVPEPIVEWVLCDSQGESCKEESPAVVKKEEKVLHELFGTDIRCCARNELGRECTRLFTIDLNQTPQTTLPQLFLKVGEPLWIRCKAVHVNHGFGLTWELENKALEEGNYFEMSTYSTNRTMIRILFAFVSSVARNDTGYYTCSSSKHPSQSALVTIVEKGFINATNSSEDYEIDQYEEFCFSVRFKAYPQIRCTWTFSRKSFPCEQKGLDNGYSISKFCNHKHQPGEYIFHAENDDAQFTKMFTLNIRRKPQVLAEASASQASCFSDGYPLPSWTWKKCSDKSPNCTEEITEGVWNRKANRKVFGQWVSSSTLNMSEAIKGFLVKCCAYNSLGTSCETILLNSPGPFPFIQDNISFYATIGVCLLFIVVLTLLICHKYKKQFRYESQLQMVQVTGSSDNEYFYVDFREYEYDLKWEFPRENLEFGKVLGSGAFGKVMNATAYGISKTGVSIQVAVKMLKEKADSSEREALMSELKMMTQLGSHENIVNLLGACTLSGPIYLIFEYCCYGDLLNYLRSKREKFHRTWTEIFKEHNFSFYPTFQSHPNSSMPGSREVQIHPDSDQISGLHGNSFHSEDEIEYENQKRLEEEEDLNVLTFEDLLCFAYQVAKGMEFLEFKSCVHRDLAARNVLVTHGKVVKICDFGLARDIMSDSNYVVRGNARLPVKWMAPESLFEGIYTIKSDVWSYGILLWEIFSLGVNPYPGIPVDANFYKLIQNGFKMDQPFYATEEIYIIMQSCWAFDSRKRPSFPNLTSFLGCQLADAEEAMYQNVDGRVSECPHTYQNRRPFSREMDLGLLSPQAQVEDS

[31] = test system: BT-549; experiment: Growth inhibition of human BT549 cells assessed as cell growth at 30 uM incubated for 48 hrs by sulforhodamine B assay relative to control; assay type: functional; conditions: BT-549, 48 h, read-out: Activity
[32] = species: Homo sapiens; experiment: Selectivity index, ratio of IC50 for human BRAF V600E mutant to IC50 for human c-RAF
[33] = molecular target: Mitogen-activated protein kinase 1 (Homo sapiens) (UniProt P28482); experiment: Inhibition of human ERK2 at 10 uM using myelin basic protein as substrate in presence of [33P]ATP by Hotspot assay relative to control
Chain of Mitogen-activated protein kinase 1 (Homo sapiens) (P28482 whole entry): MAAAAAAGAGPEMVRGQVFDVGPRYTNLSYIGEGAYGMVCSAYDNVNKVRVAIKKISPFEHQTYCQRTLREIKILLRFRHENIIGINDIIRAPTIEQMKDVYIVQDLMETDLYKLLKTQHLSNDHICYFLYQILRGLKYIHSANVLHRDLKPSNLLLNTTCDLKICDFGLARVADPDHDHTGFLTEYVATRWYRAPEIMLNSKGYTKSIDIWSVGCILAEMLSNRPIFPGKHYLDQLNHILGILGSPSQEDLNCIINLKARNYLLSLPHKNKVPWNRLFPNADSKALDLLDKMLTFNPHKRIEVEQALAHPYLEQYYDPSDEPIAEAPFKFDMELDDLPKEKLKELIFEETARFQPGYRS

[34] = test system: MDA-MB-468; experiment: Growth inhibition of human MDA-MB-468 cells assessed as cell growth at 0.03 uM incubated for 48 hrs by sulforhodamine B assay relative to control; assay type: functional; conditions: MDA-MB-468, 48 h, read-out: Activity

COc1cc2cc(Oc3ccc(NC(=O)Nc4cccc(C(F)(F)F)c4)cc3)c(C)nc2cc1OC
growth at 5 µM [1]: 10% | growth at 5 µM [2]: 5% | growth at 50 µM [3]: -61% | growth at 50 µM [4]: -57% | growth at 0.005 µM [5]: 90% | growth at 0.05 µM [6]: 101% | growth at 50 µM [7]: -100% | growth at 0.5 µM [8]: 108% | growth at 5 µM [9]: 31% | growth at 0.5 µM [10]: 89% | growth at 0.005 µM [11]: 96% | growth at 50 µM [12]: -48% | growth at 0.5 µM [13]: 95% | growth at 50 µM [14]: -60% | growth at 50 µM [15]: -72% | growth at 50 µM [16]: -85% | growth at 0.5 µM [17]: 92% | growth at 0.05 µM [18]: 98% | growth at 0.05 µM [19]: 100% | growth at 5 µM [20]: 3% | growth at 50 µM [21]: -99% | growth at 5 µM [22]: 13% | growth at 0.5 µM [23]: 101% | growth at 0.5 µM [24]: 96% | growth at 0.5 µM [25]: 82% | growth at 0.05 µM [26]: 98% | growth at 0.5 µM [27]: 85% | growth at 0.005 µM [28]: 86% | growth at 50 µM [29]: -32%

COc1cc2cc(Oc3ccc(NC(=O)Nc4ccc(Cl)c(C(F)(F)F)c4)cc3)c(C)nc2cc1OC
inhibition [30]: 33.5% | growth at 30 µM [31]: -65% | Ratio IC50 [32]: 2.6 | inhibition [33]: 1.04%

Cc1nc2cc(O)c(O)cc2cc1Oc1ccc(NC(=O)Nc2ccc(Cl)c(Cl)c2)cc1
growth at 0.03 µM [34]: 105%
